Measured values published in ChEMBL document CHEMBL1201862, “PubChem BioAssay data set” (2004).
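Results reflect a 48-hour exposure of cells in 96-well plates to compound at five concentrations. GI50 is the concentration that inhibits growth by half.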 The source made the active and inactive calls. Cut-off read from the data, not from the text of the source: active = GI50 up to about 1.1 µM and inactive = higher.

Columns and labels:
Assay in all cases: inhibition of tumour cell growth, NCI panel, 48 h
BT-549 = tested on: BT-549
Hs-578T = tested on: Hs-578T
T47D = tested on: T47D
DLD-1 = tested on: DLD-1
DMS-114 = tested on: DMS-114
KM-20L2 = tested on: KM-20L2
LXFL 529 = tested on: LXFL 529
DMS-273 = tested on: DMS-273

Structure (SMILES)	GI50 (BT-549)	GI50 (Hs-578T)	GI50 (T47D)	GI50 (DLD-1)	GI50 (DMS-114)	GI50 (KM-20L2)	GI50 (LXFL 529)	GI50 (DMS-273)
C[N+](CCCl)(CCCl)Cc1cccc2cccc([N+](=O)[O-])c12	> 100 µM (inactive)	> 100 µM (inactive)	42.7 µM (inactive)	–	–	–	–	–
O=C(CCN1CCCCC1)c1csc2ccccc12	> 100 µM (inactive)	> 100 µM (inactive)	45.7 µM (inactive)	–	–	–	–	–
CCOC(=O)C(NC(=O)c1ccccc1)(N1CCOCC1)C(F)(F)F (stereo not given)	> 100 µM (inactive)	> 100 µM (inactive)	> 100 µM (inactive)	–	–	–	–	–
COc1cnc2oc3ccc(O)cc3c2c1-c1ccccc1	> 100 µM (inactive)	> 100 µM (inactive)	3.65 µM (inactive)	–	–	–	–	–
O=C1OC(CCCl)(c2ccccc2)CC1CN1CCOCC1 (stereo not given)	–	–	–	17.7 µM (inactive)	20.4 µM (inactive)	39.5 µM (inactive)	18.8 µM (inactive)	–
Cc1ccc(O)c(C(c2cccc(C(c3cc(C)ccc3O)c3cc(C)ccc3O)c2)c2cc(C)ccc2O)c1	2.43 µM (inactive)	1.56 µM (inactive)	1.98 µM (inactive)	–	–	–	–	–
Cc1cc(O)c2c(c1)CC(O)C1=C2C(=O)c2c(O)ccc(OC3CC(O)C(OC4CC(OC5CCC(O)C(C)O5)C(O)C(C)O4)C(C)O3)c2C1=O (stereo not given)	1.86 µM (inactive)	2.62 µM (inactive)	2.15 µM (inactive)	–	–	–	–	–
COC(=O)N/N=C(/CCN1CCCC1)CC(c1ccccc1)c1c(O)c2ccccc2oc1=O (stereo not given)	–	–	–	> 100 µM (inactive)	–	> 100 µM (inactive)	> 100 µM (inactive)	> 100 µM (inactive)
COC(=O)C[C@@H]1C(C)(C)[C@@H]2O[C@@]34C[C@@H]2C(=O)[C@]1(C)[C@H]3CC[C@@]1(C)[C@H](c2ccoc2)OC(=O)C[C@]14O	> 100 µM (inactive)	–	> 100 µM (inactive)	–	–	–	–	–
Cc1ccc(F)c2c(=O)cc(-c3ccccc3)[nH]c12	–	–	–	> 100 µM (inactive)	> 100 µM (inactive)	–	> 100 µM (inactive)	94.6 µM (inactive)
C1COCCOP2(N3CC3)=NP(N3CC3)(=NP(N3CC3)(N3CC3)=N2)OCCOCCO1 (stereo not given)	> 100 µM (inactive)	> 100 µM (inactive)	70.3 µM (inactive)	–	–	–	–	–
O=C(/N=C(/Nc1ccccc1)SCCS/C(=N\C(=O)c1ccccc1)Nc1ccccc1)c1ccccc1	–	–	–	49.8 µM (inactive)	35.7 µM (inactive)	68.9 µM (inactive)	56.2 µM (inactive)	78.3 µM (inactive)
COC(=O)CCCC(=O)NC1=C(Nc2ccccc2)C(=O)c2ccccc2C1=O	–	28.7 µM (inactive)	24.3 µM (inactive)	–	–	–	–	–
COc1ccc([C@H]2[C@H](C)C3=Nc4ccccc4CN32)cc1	> 100 µM (inactive)	> 100 µM (inactive)	–	–	–	–	–	–
CC1=NC2(CCCCC2)N(Cl)C(=O)C1SC#N (stereo not given)	14.4 µM (inactive)	41 µM (inactive)	21.6 µM (inactive)	–	–	–	–	–
C1=C[C@@H]2c3ccc4cnccc4c3NC[C@@H]2C1	> 100 µM (inactive)	46.8 µM (inactive)	> 100 µM (inactive)	–	–	–	–	–
CCOc1ccc(N(CC(=O)N2CC(=O)Nc3cc(C)c(C)cc32)C(C)=O)cc1	–	–	–	> 100 µM (inactive)	–	> 100 µM (inactive)	> 100 µM (inactive)	> 100 µM (inactive)
Cc1nc2c(O)cc3c4c([nH]c3c2nc1C)C(=O)CCC4	–	2.62 µM (inactive)	–	–	–	–	–	–
C=C1C(=O)OC2CC1C(OC(=O)/C=C/c1ccccc1)C/C(C)=C/CC/C(C)=C/CCC2(C)O (stereo not given)	1.05 µM (active)	2.19 µM (inactive)	3.47 µM (inactive)	–	–	–	–	–
NCCCN(CCCCN(CCCN)CCCc1ccccc1)CCCc1ccccc1	3.03 µM (inactive)	1.81 µM (inactive)	6.84 µM (inactive)	–	–	–	–	–
O=C1NCN(c2ccccc2)C12CCN(CCc1ccc3[nH]c(=S)[nH]c3c1)CC2	30.5 µM (inactive)	> 100 µM (inactive)	16.4 µM (inactive)	–	–	–	–	–
CC(=O)OC[C@@H](OC(C)=O)[C@H](OC(C)=O)[C@@H]1OC(C)(C)O[C@@H]1C1SCCCS1	> 100 µM (inactive)	> 100 µM (inactive)	> 100 µM (inactive)	–	–	–	–	–
CC1CC[C@@]2(OC1)OC1C[C@H]3[C@@H]4C/C(=N\N(C)C)[C@@]5(O)CC(O)CC[C@]5(C)[C@H]4CC[C@]3(C)C1[C@@H]2C (stereo not given in full)	51.2 µM (inactive)	33.3 µM (inactive)	31.5 µM (inactive)	–	–	–	–	–
Clc1cc(OC2C3CC4CC(C3)CC2C4)nc(Cl)n1 (stereo not given)	19.8 µM (inactive)	18.9 µM (inactive)	20.1 µM (inactive)	–	–	–	–	–
COC(=O)C1(SC)C2CCC3C2CCC31 (stereo not given)	> 100 µM (inactive)	> 100 µM (inactive)	> 100 µM (inactive)	–	–	–	–	–
CC(C)/C=C1\CCC(CN2CCCC2)C1=O (stereo not given)	–	–	–	3.88 µM (inactive)	12.9 µM (inactive)	18.5 µM (inactive)	3.03 µM (inactive)	–
CC(C)(C)OC(=O)Nc1cc(-c2ccccc2)co1	79.8 µM (inactive)	–	38.4 µM (inactive)	–	–	–	–	–
O=c1[nH]c(=S)[nH]cc1CN1CCOCC1	> 100 µM (inactive)	> 100 µM (inactive)	> 100 µM (inactive)	–	–	–	–	–
CC(=O)/N=C1\NC(=O)/C(=C/c2ccccc2Cl)N1C	> 100 µM (inactive)	> 100 µM (inactive)	–	–	–	–	–	–
Cc1nn(C(=O)Cc2ccccc2)c2c1C(c1ccc(O)cc1)SC(=N)N2 (stereo not given)	> 100 µM (inactive)	> 100 µM (inactive)	> 100 µM (inactive)	–	–	–	–	–
